Data on two compounds can be found in publication PMC6526530 (Biological & pharmaceutical bulletin, 2009).

pIC50: −log10 of the molar value.

The target of series [1] is T1, P-glycoprotein (ABCB1/MDR1) (Homo sapiens, UniProt P08183). Kind of series: inhibition of transepithelial DRV transport in L-MDR1 monolayers. The series is classed as cell-based.
For series [2], the target named is T1, P-glycoprotein (ABCB1/MDR1). Kind of series: transepithelial transport in L-MDR1 vs LLC-PK1 monolayers. The format is cell-based.

T1 sequence (P08183 whole entry): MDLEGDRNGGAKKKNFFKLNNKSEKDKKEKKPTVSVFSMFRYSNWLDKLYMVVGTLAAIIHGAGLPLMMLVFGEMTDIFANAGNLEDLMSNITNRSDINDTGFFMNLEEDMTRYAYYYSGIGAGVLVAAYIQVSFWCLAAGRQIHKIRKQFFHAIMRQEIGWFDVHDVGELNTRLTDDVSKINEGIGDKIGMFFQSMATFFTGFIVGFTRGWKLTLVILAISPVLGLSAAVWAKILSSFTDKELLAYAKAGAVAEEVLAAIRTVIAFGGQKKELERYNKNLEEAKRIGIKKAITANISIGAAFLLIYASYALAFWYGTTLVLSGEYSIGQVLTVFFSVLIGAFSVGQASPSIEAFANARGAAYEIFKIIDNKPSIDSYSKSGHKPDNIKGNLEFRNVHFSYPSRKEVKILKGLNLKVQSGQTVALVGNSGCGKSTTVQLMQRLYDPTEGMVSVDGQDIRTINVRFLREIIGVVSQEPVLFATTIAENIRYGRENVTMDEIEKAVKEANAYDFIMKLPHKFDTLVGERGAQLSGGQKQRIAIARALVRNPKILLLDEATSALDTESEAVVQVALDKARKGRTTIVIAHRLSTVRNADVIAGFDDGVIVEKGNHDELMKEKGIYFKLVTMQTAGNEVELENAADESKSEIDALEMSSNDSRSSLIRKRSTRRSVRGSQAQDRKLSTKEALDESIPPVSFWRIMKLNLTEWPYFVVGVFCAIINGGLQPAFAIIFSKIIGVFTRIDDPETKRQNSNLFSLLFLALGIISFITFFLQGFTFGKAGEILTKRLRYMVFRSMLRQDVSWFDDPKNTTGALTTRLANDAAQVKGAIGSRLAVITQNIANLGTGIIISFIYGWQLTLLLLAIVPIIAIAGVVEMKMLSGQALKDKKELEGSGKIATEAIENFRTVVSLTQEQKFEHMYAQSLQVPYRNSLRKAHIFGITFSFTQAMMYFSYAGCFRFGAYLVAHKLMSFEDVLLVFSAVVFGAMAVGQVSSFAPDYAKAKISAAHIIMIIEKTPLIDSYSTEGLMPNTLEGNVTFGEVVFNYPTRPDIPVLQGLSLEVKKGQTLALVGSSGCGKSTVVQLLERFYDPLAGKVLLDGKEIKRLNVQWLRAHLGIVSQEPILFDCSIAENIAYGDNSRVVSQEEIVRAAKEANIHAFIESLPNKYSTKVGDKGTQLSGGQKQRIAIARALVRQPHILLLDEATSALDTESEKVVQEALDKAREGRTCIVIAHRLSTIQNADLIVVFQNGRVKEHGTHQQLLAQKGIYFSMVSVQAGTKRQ

As to `Cc1c(O)cccc1C(=O)N[C@@H](CSc1ccccc1)[C@H](O)CN1C[C@H]2CCCC[C@H]2C[C@H]1C(=O)NC(C)(C)C` [NFV, Nelfinavir], the “inhibition of transepithelial DRV transport in L-MDR1 monolayers” value in series [1] was “showed NFV to have a potent inhibitory effect on P-glycoprotein-mediated transport of DRV when compared to RTV and SQV”. A word on the pIC50: it is −log10 of the IC50, conventionally taken in molar units. Read a high pIC50 as a low IC50. With `CC(C)CN(C[C@@H](O)[C@H](Cc1ccccc1)NC(=O)O[C@H]1CO[C@H]2OCC[C@H]21)S(=O)(=O)c1ccc(N)cc1` [DRV, Darunavir], in series [2], the pIC50 is 3.92.
